Measured values from ChEMBL document CHEMBL1201862, “PubChem BioAssay data set” (2004).
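In this assay, cells in 96-well plates receive the compound at five concentrations for 48 hours. Endpoints are linearly interpolated between the surrounding concentrations. Here, GI50 denotes the concentration required for 50% inhibition of growth.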 The source made the active and inactive calls. Cut-off read from the data, not from the text of the source: active = GI50 up to about 1.1 µM and inactive = higher.

Columns and labels:
Assay in all cases: NCI-60 cell line screen, 48 h
HCT-15 = system: HCT-15
NCI-H23 = system: NCI-H23
NCI-H226 = system: NCI-H226
UO-31 = system: UO-31
SK-MEL-2 = system: SK-MEL-2
HT-29 = system: HT-29
OVCAR-3 = system: OVCAR-3
CCRF-CEM = system: CCRF-CEM
SK-MEL-28 = system: SK-MEL-28
LOX IMVI = system: LOX IMVI
RXF 393 = system: RXF 393
A549 = system: A549
SR = system: SR
TK-10 = system: TK-10
SF-539 = system: SF-539
U-251 = system: U-251
M14 = system: M14
SK-OV-3 = system: SK-OV-3
K562 = system: K562
Malme-3M = system: Malme-3M

SMILES	GI50 (HCT-15) [µM]	GI50 (NCI-H23)	GI50 (NCI-H226)	GI50 (UO-31)	GI50 (SK-MEL-2)	GI50 (HT-29)	GI50 (OVCAR-3)	GI50 (CCRF-CEM)	GI50 (SK-MEL-28)	GI50 (LOX IMVI)	GI50 (RXF 393)	GI50 (A549)	GI50 (SR)	GI50 (TK-10)	GI50 (SF-539)	GI50 (U-251)	GI50 (M14)	GI50 (SK-OV-3)	GI50 (K562)	GI50 (Malme-3M)
COc1ccc2c(c1)c(=O)c1ccccc1n2/C=C/C(=O)O	> 100	> 100 µM (inactive)	> 100 µM (inactive)	> 100 µM (inactive)	> 100 µM (inactive)	> 74.8 µM (inactive)	> 100 µM (inactive)	> 48.4 µM (inactive)	> 100 µM (inactive)	> 46.9 µM (inactive)	> 79.4 µM (inactive)	> 100 µM (inactive)	> 41.7 µM (inactive)	> 100 µM (inactive)	> 100 µM (inactive)	> 27 µM (inactive)	> 100 µM (inactive)	> 100 µM (inactive)	> 100 µM (inactive)	> 100 µM (inactive)
COC(=O)C#CC(N)=O	> 100	> 100 µM (inactive)	> 100 µM (inactive)	> 100 µM (inactive)	> 91.2 µM (inactive)	> 100 µM (inactive)	> 100 µM (inactive)	13.9 µM (inactive)	17.9 µM (inactive)	> 35.8 µM (inactive)	31.4 µM (inactive)	> 100 µM (inactive)	24.2 µM (inactive)	> 55.6 µM (inactive)	> 100 µM (inactive)	> 100 µM (inactive)	19.5 µM (inactive)	> 100 µM (inactive)	21.8 µM (inactive)	13.4 µM (inactive)
C/C(=N\N=C(/S)N1CCCCCC1)c1cccc[n+]1[O-]	0.845	5.82 µM (inactive)	7.69 µM (inactive)	7.55 µM (inactive)	2.37 µM (inactive)	0.31 µM (active)	0.61 µM (active)	0.109 µM (active)	6.58 µM (inactive)	4.52 µM (inactive)	18.4 µM (inactive)	4.36 µM (inactive)	4.01 µM (inactive)	21.5 µM (inactive)	4.54 µM (inactive)	6.28 µM (inactive)	2.72 µM (inactive)	20.8 µM (inactive)	0.0883 µM (active)	1.6 µM (inactive)
C/C(CC(O)(C(F)(F)F)C(F)(F)F)=N/Nc1ccc([N+](=O)[O-])cc1[N+](=O)[O-]	2.85	2.46 µM (inactive)	2.06 µM (inactive)	2.32 µM (inactive)	2.28 µM (inactive)	2.69 µM (inactive)	1.96 µM (inactive)	3.41 µM (inactive)	3.27 µM (inactive)	3.3 µM (inactive)	2.12 µM (inactive)	2.54 µM (inactive)	4.9 µM (inactive)	3.56 µM (inactive)	3.78 µM (inactive)	2.67 µM (inactive)	3.61 µM (inactive)	2.33 µM (inactive)	2.44 µM (inactive)	2.11 µM (inactive)
CC(CO)(CO)N1C(=O)C2C3C=CC(C3)C2C1=O (stereo not given)	> 100	> 100 µM (inactive)	> 100 µM (inactive)	> 100 µM (inactive)	> 100 µM (inactive)	> 100 µM (inactive)	> 100 µM (inactive)	> 100 µM (inactive)	> 100 µM (inactive)	> 100 µM (inactive)	52.1 µM (inactive)	> 100 µM (inactive)	> 100 µM (inactive)	> 100 µM (inactive)	> 100 µM (inactive)	> 100 µM (inactive)	> 100 µM (inactive)	> 100 µM (inactive)	> 100 µM (inactive)	> 100 µM (inactive)
CC1=NN(c2ccccc2)C(=O)C12[C@H](c1ccccc1)C2(C#N)C#N (stereo not given in full)	2.49	2.85 µM (inactive)	12.8 µM (inactive)	14.7 µM (inactive)	6.43 µM (inactive)	4.59 µM (inactive)	7.03 µM (inactive)	0.457 µM (active)	3.48 µM (inactive)	1.78 µM (inactive)	5.19 µM (inactive)	16.3 µM (inactive)	1.91 µM (inactive)	12.5 µM (inactive)	14.6 µM (inactive)	15.4 µM (inactive)	1.44 µM (inactive)	18.6 µM (inactive)	1.85 µM (inactive)	4.68 µM (inactive)
C=C(C)COc1ccc2c(c1)CCC1C2CCC2(C)C(=O)/C(=N/O)CC12 (stereo not given)	2.41	3.21 µM (inactive)	9.31 µM (inactive)	3.9 µM (inactive)	4.14 µM (inactive)	1.31 µM (inactive)	3.43 µM (inactive)	1.94 µM (inactive)	17.2 µM (inactive)	3.08 µM (inactive)	1.19 µM (inactive)	9.62 µM (inactive)	0.966 µM (active)	1.35 µM (inactive)	12.8 µM (inactive)	4.09 µM (inactive)	4.13 µM (inactive)	8.55 µM (inactive)	2.73 µM (inactive)	13.8 µM (inactive)
